The record followed here is EP4570244A1, “ENHANCING AGENT OF CARDIOLIPIN MOLECULAR SPECIES THAT IS MITOCHONDRIAL COMPONENT” (Watanabe Oyster Laboratory Co., Ltd., priority 2022, dated 2024).

Molecules are shown by their SMILES.

Assay [1] deals with PNPLA8. Nature of the assay: qPCR expression level of cardiolipin remodeling and degradation-related gene in HK-2 cells under oxidative stress. The class given is cell-based, Human. Conditions: oxidative stress + DHMBA, 24 hours, versus the increase in the oxidative stress group, corrected with β-actin, FIG. 6. Here is the method:
(§1) Human renal proximal tubule cells (HK-2) were subcultured in Dulbecco's Modified Eagle's Medium (DMEM, Nacalai Tesque) containing 10% fetal bovine serum and 1% penicillin-streptmycin at 37°C in a 5% CO2 incubator. The following experiments were conducted using the oxidative stress inducer to confirm the cardiolipin increase effect of DHMBA on the oxidative stress.
(§2) HK-2 cells were seeded in a 6-well plate at a density of 5.0 × 10^4 cells/well and cultured for 24 hours.
(§3) Next, under the same stimulus conditions as described above, 2 mL thereof was added to each well. After 24 hours, total RNA was recovered using NucleoSpin (registered trademark) RNA Kit (MACHEREY-NAGEL). The concentration of the purified RNA was quantified by Nanodrop (Invitrogen). From 1.0 µg of the total RNA, cDNA was synthesized according to a protocol for ReverTra Ace (registered trademark) qPCR RT Master Mix with gDNA Remover (TOYOBO).
(§4) The gene expression levels were measured according to a protocol for THUNDERBIRD (registered trademark) SYBR (registered trademark) qPCR Mix (TOYOBO). Measurements were performed using a CFX Connect™ real-time PCR analysis system (BioRad), and analyzed using a 2^-(ΔΔCT) method.
(§5) The gene expression level of the control group was set at 1 for comparison. The figures are expressed as mean ± SD (n = 4 for each group). […]

The test system of assay [2] is HADHB. Described as above. The settings on record: oxidative stress + DHMBA, 24 hours, corrected with β-actin, FIG. 6. The class given is cell-based, Human. The protocol: as §1, §2, §3, §4, §5
The test system of assay [3] is Human renal proximal tubule cells (HK-2). In words: Cardiolipin measurement by LC-MS/MS in HK-2 cells under oxidative stress stimulation. The class given is cell-based. The protocol: as §1
HK-2 cells were seeded in a 6-well plate at a density of 1.0 × 10^5 cells/well and cultured for 24 hours. The cells were then divided into four groups with different stimulus conditions, and 2 mL thereof was added to each well.
The above-described four groups with the different stimulus conditions are as follows.
Control group (culture medium); oxidative stress group (final concentration 100 µM Oxidative Stress); oxidative stress + DHMBA 250 group (final concentration 100 µM Oxidative Stress + final concentration 250 µM DHMBA); and oxidative stress + DHMBA 500 group (final concentration 100 µM Oxidative Stress + final concentration 500 µM DHMBA).
After 24 hours, the cells were washed twice with phosphate-buffered saline (hereinafter referred to as PBS), and then 1 mL of PBS was added to each well and the cells were recovered using a scraper. In this cell suspension, 100 µL was used for protein quantification by a bicinchoninic acid (BCA) method. The protein concentration was used for correction of the cardiolipin concentration. The remaining cell suspension was centrifuged at 1,200 rpm for 5 minutes, the supernatant was removed, and then the precipitated cells were stored at -80°C.
For the cardiolipin measurement, the total intracellular lipids were extracted in the same way as in the previous reports (Chen Z, et al. Metabolomics, 16: 115, 2020).
In short, the lipids in the sample were extracted using hexane/isopropanol 3:2 (v/v, with 0.05% butylated hydroxytoluene), and then dried and hardened in an evaporator. Next, the sample was dissolved in methanol (MeOH), and insoluble substances were removed by centrifugation at 15,000 rpm for 15 minutes at 4°C. The total lipids extracted were stored at -80°C. The cardiolipin measurement was performed using LC-MS/MS, following the same procedure as before.

Assay [4] relates to CDS2. In words: qPCR expression level of cardiolipin biosynthesis-related gene in HK-2 cells under oxidative stress. The class given is cell-based, Human. The settings on record: oxidative stress + DHMBA, 24 hours, versus the increase in the oxidative stress group, corrected with β-actin, FIG. 5. The protocol: as §1, §2, §3, §4, §5
In general terms: Quantitative PCR measures a nucleic acid by following its amplification.

[5] abbreviates: oxidative stress + DHMBA, acyl group distribution, FIG. 4.

Consider `COc1c(O)cc(CO)cc1O` [DHMBA, 3,5-dihydroxy-4-methoxybenzyl alcohol], for which the “gene expression level of PNPLA8” value in assay [1] is “decreased to the same level as the control group”. Also, the “expression level of HADHB” value in assay [2] was “increased”. The cardiolipin molecular species entry in assay [3] (100 µM oxidative stress inducer + DHMBA (250 or 500 µM), 24 hours, almost all species, FIG. 2) is “increased significantly”. Also, the total cardiolipin content result in assay [3] (co-treatment with 100 µM oxidative stress and 250 µM or 500 µM DHMBA, 24 hours, increase, FIG. 3) is “about 1.5 times”. In assay [3] (setting [5]), the “saturated fatty acid chain FA16:0 of cardiolipin” value is “decreased”, the “unsaturated fatty acid chain FA18:1 of cardiolipin” value is recorded as “increased” and the “unsaturated fatty acid chain FA18:2 of cardiolipin” value is reported as “increased”. Further, in assay [4], the “gene expression level of CDS2” value is “decreased to the same level as the control group”.
